{"source": "paper PMC7970304", "about": "“The Effects of Apelin and Elabela Ligands on Apelin Receptor Distinct Signaling Profiles” (Frontiers in Pharmacology, 2021)", "key": {"μ opioid receptor (MOR)": {"test_system": "μ opioid receptor (MOR)", "details": "ref Markham, 2020; cited from earlier work", "source_text": "GPCR ligands were traditionally thought to act equally on all the downstream signaling pathways of the GPCRs, including the multiple signaling pathways mediated by G proteins and β-arrestin."}, "[1]": {"target": "APJ-Renilla luciferase (Rluc) (UniProt P35414)"}, "APJ-Venus": {"target": "APJ-Venus (UniProt P35414)"}, "Apelin receptor (APJ) [2]": {"target": "Apelin receptor (APJ) (UniProt P35414)"}, "Apelin receptor (APJ) [3]": {"target": "Apelin receptor (APJ) (UniProt P35414)", "experiment": "radioligand binding; competition binding: HEK-293/APJ membrane preparation 20 μg/well, 0.1 nM [125I]-apelin-13, test peptides in 5-fold dilutions starting at 10 µM; 50 mM HEPES pH 7.4, 5 mM MgCl2, 1 mM CaCl2, 0.2% BSA; 30°C, 2 h; Ki calculated from IC50"}, "APJ [4]": {"test_system": "APJ", "details": "cited from earlier work", "source_text": "(§1) Elabela (also known as apela or toddler), which has little sequence homology with Apelin, has recently been identified as the second endogenous APJ ligand. […] Elabela is highly expressed during embryogenesis and in adult kidney. Elabela is also derived from a precursor of 54 amino acids."}, "APJ [5]": {"test_system": "APJ", "set-up": "method as in Nyimanu et al., 2019", "details": "ref Nyimanu et al., 2019; cited from earlier work"}, "[6]": {"test_system": "pulmonary arterial hypertension (PAH)", "set-up": "method as in Yang et al., 2017", "details": "exogenous peptide; ref Yang et al., 2017; cited from earlier work"}, "APJ [7]": {"test_system": "APJ", "details": "ERK1/2-dependent; ref Perjés et al., 2016; cited from earlier work", "source_text": "as §1, with “acids. Its 13 C-terminal amino acids are highly conserved among all spe ...” for “acids.”"}, "APJ (Apelin receptor)": {"target": "T1, APJ (Apelin receptor) (Homo sapiens, UniProt P35414)", "T1 sequence (P35414 1-380)": "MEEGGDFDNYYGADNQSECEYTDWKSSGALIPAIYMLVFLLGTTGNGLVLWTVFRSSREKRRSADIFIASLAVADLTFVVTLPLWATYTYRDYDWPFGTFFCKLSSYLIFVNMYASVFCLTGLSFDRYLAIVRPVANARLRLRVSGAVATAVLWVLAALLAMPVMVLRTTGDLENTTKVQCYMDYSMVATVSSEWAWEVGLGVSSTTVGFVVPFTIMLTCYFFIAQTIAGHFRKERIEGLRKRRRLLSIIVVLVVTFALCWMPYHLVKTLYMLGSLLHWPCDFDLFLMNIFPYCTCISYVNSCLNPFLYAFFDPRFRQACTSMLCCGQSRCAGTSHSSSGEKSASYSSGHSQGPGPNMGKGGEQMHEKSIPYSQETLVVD", "experiment": "Radioligand competition binding assay, [125I]-apelin-13, HEK-293/APJ membranes", "set-up": "APJ membrane preparations were obtained from transiently transfected HEK293 cells; host or cells: HEK293 cells, transiently transfected; membranes prepared", "method": "APJ membrane preparations were obtained from transiently transfected HEK293 cells. HEK293 cells were cultured in complete DMEM (DMEM plus 10% FBS) for 24 h, until they reached at least 70% confluence. Transfection reagent containing 20 μg of the APJ expression plasmid was added, and the cells were incubated for another 24 h. The cells were then harvested into 25 ml homogenization buffer (HB) [250 mM sucrose and 25 mM HEPES (pH 7.3); adjusted to pH 7.5 at 4°C and then filtered] supplemented with 250 μL phenylmethylsulfonyl fluoride (PMSF), homogenized using an IKA T25 Ultra Turrax (24,000 rpm), and centrifuged at 6,025 rpm for 15 min at 4°C. […]\nThe binding reaction was stopped by rapid filtration through polyethyleneimine (PEI)-coated GF/B plates using a cell harvester, and the plates were washed three times with ice-cold wash buffer [50 mM HEPES (pH 7.4), 500 mM NaCl, and 0.1% BSA; filtered and stored at 4°C]. The filtration plates were dried at 37°C for 2 h; 50 μL scintillation cocktail (Perkin Elmer, Wellesley, MA, United States), was added to each well; and the radioactivity was measured using a Perkin Elmer 1450 MicroBeta TriLux Microplate Scintillation and Luminescence Counter.\nThe binding reaction was stopped, the plates were washed and dried, the scintillation cocktail was added, and the radioactivity was measured as described above."}}, "note": "No end group written: not given here."}
{"compound": "COc1ccsc1CNCC[C@@]1(c2ccccn2)CCOC2(CCCC2)C1", "note": "[oliceridine]", "values": [{"measurement": "signaling bias at opioid receptor (in words)", "setting": "μ opioid receptor (MOR)", "value": "selective for G protein pathway, and the effect of β - arrestin recruitment is low"}]}
{"compound": "Apelin-17 (peptide)", "values": [{"measurement": "LogEC50 of the ligand-induced recruitment of GRK2 to APJ (BRET between APJ-Rluc and GRK2-GFP2, HEK293 cells)", "setting": "[1]", "value": -8.19}, {"measurement": "LogEC50 of the ligand-induced recruitment of GRK5 to APJ (BRET between APJ-Rluc and GRK5-GFP2, HEK293 cells)", "setting": "[1]", "value": -8.58}, {"measurement": "LogEC50 of the ligand-induced interaction of APJ with β-arrestin 1 (BRET between APJ-Venus and β-arrestin 1-Rluc, HEK293 cells)", "setting": "APJ-Venus", "value": -7.9}, {"measurement": "LogEC50 of the ligand-induced interaction of APJ with β-arrestin 2 (BRET between APJ-Venus and β-arrestin2-Rluc, HEK293 cells)", "setting": "APJ-Venus", "value": -8.33}, {"measurement": "LogEC50 of the ligand-induced interaction between β-arrestin 1 and AP2 (BRET between β-arrestin 1-Rluc and β2-adaptin-EYFP in HEK293 cells co-transfected with APJ, 30 min)", "setting": "Apelin receptor (APJ) [2]", "value": -8.48}, {"measurement": "LogEC50 of the ligand-induced interaction between β-arrestin 2 and AP2 (BRET between β-arrestin 2-Rluc and β2-adaptin-EYFP in HEK293 cells co-transfected with APJ, 30 min)", "setting": "Apelin receptor (APJ) [2]", "value": -7.17}, {"measurement": "IC50", "setting": "Apelin receptor (APJ) [3]", "value": 5.2, "unit": "nM"}]}
{"compound": "Apelin-36-[L28A]: G protein biased APJ agonist (LVQPRGSRNGPGPWQGGRRKFRRQRPRASHKGPMPF; Apelin-36; UniProt Q9ULZ1 42-77, looked up, variant L28A)", "values": [{"measurement": "signaling bias (in words)", "setting": "APJ [4]; ref Nyimanu et al., 2019", "value": "G protein biased APJ agonists"}, {"measurement": "binding to APJ (in words)", "setting": "APJ [5]", "value": "nanomolar affinities"}]}
{"compound": "Elabela", "values": [{"measurement": "APJ signaling (in words)", "setting": "APJ [4]; ref Peverelli et al., 2014", "value": "inhibit cyclic AMP (cAMP) production, activate the extracellular signal-regulated kinases (ERK1/2), and mobilize intracellular calcium through APJ internalization"}, {"measurement": "effect in PAH in rats (in words)", "setting": "[6]", "value": "reduce the severity of cardiopulmonary remodeling and function in PAH in rats"}, {"measurement": "cardiac contractility (in words)", "setting": "APJ [7]", "value": "increase cardiac contractility in an ERK1/2-dependent manner"}]}
{"compound": "LVQPRGSRNGPGPWQGGRRKFRRQRPRLSHKGPMPF [Apelin-36]", "values": [{"measurement": "Ki", "setting": "APJ (Apelin receptor)", "value": 1.74, "unit": "nM"}]}
